One data set has as its system INS-1 cells. Kind of data set: Insulin secretion assay in INS-1 cells (glucose at 4.2 mM). In kind it is cell-based. Particulars: Rattus norvegicus, INS1, glucose 4.2 mM, 1 h incubation; for activity at 10 µM: compound 10 μM, read-out: Insulin secretion, % of ctrl at 10 μM; for activity at 50 µM: compound 50 μM, read-out: Insulin secretion, % of ctrl at 50 μM. As for the experimental part:
Culture of Pancreatic INS-1 Cells
INS-1 cells were cultured in complete medium, RPMI 1640 containing 1 mM sodium pyruvate, 50 μM 2-mercaptoethanol, 2 mM glutamine, 10 mM HEPES, 100 IU/mL penicillin, and 100 μg/mL streptomycin (CM), supplemented with 10 mM glucose, and 10% (vol/vol) heat-inactivated fetal calf serum (FCS), as described by Asfari et al. (Endocrinology 130: 167-178, 1992).
INS-1 cells were plated and cultured in 48-well plates. After 2 days of culture, the medium was removed and cells were cultured for 24 h with a medium change to 5 mM glucose, 1% FCS. The cells were then washed with Krebs-Ringer Bicarbonate HEPES buffer (KRBH; 135 mM NaCl; 3.6 mM KCl; 5 mM NaHCO3; 0.5 mM NaH2PO4;
0.5 mM MgCl2; 1.5 mM CaCl2 and 10 mM HEPES; pH 7.4) 0.1% BSA containing 2.8 mM glucose and preincubated for 30 min at 37° C. in the same buffer. The cells were then washed twice and incubated for 1 h in KRBH 0.1% BSA containing 4.2 mM glucose and different concentrations of the tested molecule. Insulin concentration in the collected supernatants was measured with ELISA using rat insulin antibody (Insulin Rat Elit PLUS, cat. ref 10-1145-01).
Insulin secretion results are expressed in % of control (glucose 4.2 mM).
Insulin Secretion in INS-1 Cells (Glucose at 4.2 mM)

For data set [1], the system named is diabetic N0STZ rat islets. Kind of data set: Insulin secretion in diabetic N0STZ rat islets. In kind it is cell-based. Particulars: 90 min, mean ± SEM. As for the experimental part:
Insulin Secretion in Diabetic N0STZ Rat Islets. Materials and Methods. Islets Isolation and Treatments.
14±3 weeks non-fasted N0STZ (PORTHA et al., 1974) male rats (Charles Rivers-Domaine des Oncins, I'Arbresle, France) were anesthetised with sodium pentobarbital (Nembutal®: 45 mg/kg in 5 ml/kg administered intra peritoneally) and body temperature was maintained with a heat lamp.
Rat pancreatic islets of Langerhans were isolated from the pancreas of 8 rats by collagenase P (Boehringer, Meylan, France) digestion. Islets were purified by sedimentation in Hanks balanced salt solution [NaCl (137 mM); KCl (5.36 mM); MgSO4, 7H2O (0.81 mM); Na2HPO4, 12H2O (0.34 mM); KH2PO4 (0.44 mM); CaCl2, 2H2O (1.26 mM); NaHCO3 (4.17 mM)] followed by Ficoll gradient separation.
Islets were then hand-picked under stereoscopic microscope and batches of 3 islets were incubated for 90 minutes at 37° C. with continuous shaking under a humidified condition (95% O2, 5% CO2) in 1 ml of Krebs/Hepes pH 7 solution [NaCl (115 mM), NaHCO3 (24 mM), KCl (5 mM), MgCl2 (1 mM), CaCl2, 2H2O (1 mM), 0.2% of Bovine serum albumin (Fraction V, fatty acid free, Boehringer, Mannheim), 10 mM Hepes] containing the required glucose or compound concentration.
Compounds were dissolved in DMSO at 2.10-2M stock solutions. They were then diluted at the required concentration in Krebs/Hepes buffer containing the required glucose concentration.
At the end of incubation, media was collected and insulin levels were measured using ELISA (EUROBIO, Courtaboeuf, France).
Islets were hand-picked and incubated in the presence of increasing concentrations of compounds in the presence of glucose at 2.8 or 8 mM. At the end of incubation, media was collected and insulin levels were measured using ELISA method. Results are expressed as % of glucose control (2.8 or 8 mM) and represent Means±SEM.

Setting [2] is: glucose 2.8 mM, compound 10−4 M.

For the compound `CCn1ccnc(S(=O)(=O)Cc2ccccc2)c1=O` [Example 6, 3-benzylsulfonyl-1-ethylpyrazin-2(1H)-one], in the data set with INS-1 cells, the activity at 10 µM turned out to be 128% and the activity at 50 µM turned out to be 184%.
As a reminder, the melting point is the temperature of the solid-liquid transition. Compound `CCn1ccnc(S(=O)(=O)Cc2ccc(Cl)cc2)c1=O` [Example 6-2, 3-[(4-chlorobenzyl)sulfonyl]-1-ethylpyrazin-2(1H)-one] showed a melting point of 115 to 118 °C. In the data set with INS-1 cells, the activity at 10 µM was 142% and the activity at 50 µM came out at 276%.
Consider `CCCn1ccnc(S(=O)(=O)Cc2ccc(C)cc2)c1=O` [Example 6-3, 3-[(4-methylbenzyl)sulfonyl]-1-propylpyrazin-2(1H)-one], for which the melting point lay in the range of 128 to 130 °C. In addition, the “Insulin secretion, % of glucose control” value in data set [1] (setting [2]) is listed as 121 ± 7 % of glucose control. The “Insulin secretion, % of glucose control” value in data set [1] (glucose 8 mM, compound 10−4 M) was 271 ± 5 % of glucose control. Also, in data set [1] (glucose 8 mM, compound 10−5 M), the “Insulin secretion, % of glucose control” value is 131 ± 5 % of glucose control. For the same compound, the “Insulin secretion, % of glucose control” value in data set [1] (glucose 8 mM, compound 10−6 M) was 108 ± 5 % of glucose control. The “Insulin secretion, % of glucose control” value in data set [1] (glucose 8 mM, compound 10−7 M) was 101 ± 6 % of glucose control. In the data set with INS-1 cells, the activity at 10 µM is 144% and the activity at 50 µM was 207%.
Compound `CCCn1ccnc(S(=O)(=O)Cc2ccc(F)cc2)c1=O` [Example 6-4, 3-[(4-fluorobenzyl)sulfonyl]-1-propylpyrazin-2(1H)-one] yielded a melting point of 123 to 125 °C. Further, in the data set on INS-1 cells, the activity at 10 µM was 142% and the activity at 50 µM came to 203%.
`CCCn1ccnc(S(=O)(=O)Cc2ccccc2)c1=O` [Example 6-5, 3-(benzylsulfonyl)-1-propylpyrazin-2(1H)-one] displayed a melting point of 133 to 135 °C.
In the case of `CCn1ccnc(S(=O)(=O)Cc2ccc(Br)cc2)c1=O` [Example 6-6, 1-ethyl-3-[(4-bromobenzyl)sulfonyl]pyrazin-2(1H)-one], the melting point fell in the range of 135 to 138 °C. Also, in the data set with INS-1 cells, the activity at 10 µM stood at 164% and the activity at 50 µM was found to be 362%.
`CCCn1ccnc(S(=O)(=O)Cc2ccc(Cl)cc2)c1=O` [Example 10, 3-[(4-chlorobenzyl)sulfonyl]-1-propylpyrazin-2(1H)-one] had a melting point of 125 to 128 °C. The “Insulin secretion, % of glucose control” value in data set [1] (setting [2]) is reported as 178 ± 7 % of glucose control. The “Insulin secretion, % of glucose control” value in data set [1] (glucose 8 mM, compound 10−4 M) was 203 ± 11 % of glucose control. Also, in data set [1] (glucose 8 mM, compound 10−5 M), the “Insulin secretion, % of glucose control” value is given as 133 ± 7 % of glucose control. The “Insulin secretion, % of glucose control” value in data set [1] (glucose 8 mM, compound 10−6 M) is on record as 90 ± 4 % of glucose control. For the same compound, the “Insulin secretion, % of glucose control” value in data set [1] (glucose 8 mM, compound 10−7 M) was 84 ± 7 % of glucose control. Besides, in the data set with INS-1 cells, the activity at 10 µM turned out to be 155% and the activity at 50 µM came out at 331%.
On to `CCCCn1ccnc(S(=O)(=O)Cc2ccccc2F)c1=O` [Example 10-3, 1-butyl-3-[(2-fluorobenzyl)sulfonyl]pyrazin-2(1H)-one], for which, in the data set with INS-1 cells, the activity at 10 µM worked out at 108% and the activity at 50 µM is 236%.
The corresponding values for `CCCCn1ccnc(S(=O)(=O)Cc2cccc(C(F)(F)F)c2)c1=O` [Example 10-4, 1-butyl-3-[(3-trifluoromethylbenzyl)sulfonyl]pyrazin-2(1H)-one] are 187% and 272%.
In the case of `CCCCn1ccnc(S(=O)(=O)Cc2ccc(Cl)cc2)c1=O` [Example 10-5, 1-butyl-3-[(4-chlorobenzyl)sulfonyl]pyrazin-2(1H)-one], in the data set with INS-1 cells, the activity at 10 µM was 153% and the activity at 50 µM turned out to be 261%.
For `CCCn1ccnc(S(=O)(=O)CCc2ccc(Cl)cc2)c1=O` [Example 10-6], in that order: 127% and 180%.
Compound `CCn1ccnc(S(=O)(=O)CCOc2ccc(OC)cc2)c1=O` [Example 10-7, 1-ethyl-3-{[2-(4-methoxyphenoxy)ethyl]sulfonyl}pyrazin-2(1H)-one] showed a melting point of 100 to 103 °C.
For `CCn1cc(Br)nc(S(=O)(=O)Cc2ccc(Cl)cc2)c1=O` [Example 13, 5-bromo-3-[(4-chlorobenzyl)sulfonyl]-1-ethylpyrazin-2(1H)-one], the melting point fell in the range of 145 to 147 °C.
Take `CCn1cc(-c2ccccc2)nc(S(=O)(=O)Cc2ccc(Cl)cc2)c1=O` [Example 14, 3-[(4-chlorobenzyl)sulfonyl]-1-ethyl-5-phenylpyrazin-2(1H)-one]: the melting point lay within 146 to 148 °C.
With `CCn1cc(-c2ccc(Cl)cc2)nc(S(=O)(=O)Cc2ccc(Cl)cc2)c1=O` [Example 14-2, 3-[(4-chlorobenzyl)sulfonyl]-5-(4-chlorophenyl)-1-ethylpyrazin-2(1H)-one], the activity at 10 µM in the data set with INS-1 cells was determined as 181%.
`CCn1cc(Cl)nc(SCC(=O)Nc2ccccc2)c1=O` [Example 17, 2-[(6-chloro-4-ethyl-3-oxo-3,4-dihydropyrazin-2-yl)thio]-N-phenylacetamide] returned a melting point of 156 to 158 °C.
`CCn1cc(Cl)nc(S(=O)(=O)CC(=O)Nc2ccccc2)c1=O` [Example 18, 2-[(6-chloro-4-ethyl-3-oxo-3,4-dihydropyrazin-2-yl)sulfonyl]-N-phenylacetamide] gave a melting point of 178 to 180 °C.
Consider `CCn1cc(Cl)nc(S(=O)(=O)CC(=O)N2CCCCC2)c1=O` [Example 18-2, 5-chloro-1-ethyl-3-[(2-oxo-2-piperidin-1-ylethyl)sulfonyl]pyrazin-2(1H)-one], for which, in the data set on INS-1 cells, the activity at 10 µM worked out at 159% and the activity at 50 µM turned out to be 213%.

Values taken from patent publication US8637522B2, “Pyrazinone derivatives as insulin secretion stimulators, methods for obtaining them and use thereof for the treatment of diabetes” (Merck Patent GmbH, priority 2008, dated 2014).
